# Test results: US20210300936A1, “PYRAZOLOTRIAZOLOPYRIMIDINE DERIVATIVES AS A2A RECEPTOR ANTAGONIST” (BEIGENE, LTD., priority 2018, published 2021)
# Molecular target: human A2A receptor (A2AR) (Homo sapiens, UniProt P29274)
# Assay: Luciferase reporter assay (HEK293-A2AR-luc2p/CRE/Hygro cells, 3 nM CGS21680)
# Assay type: cell-based
# Conditions: 3 nM CGS21680, 5 h incubation
# In short: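 Antagonist (0.1–10000 nM) and 3 nM CGS21680 were co-added for 5 h to stable HEK293-A2AR-luc2p/CRE cells, 18 h after seeding in 1% FBS medium containing adenosine deaminase. Luminescence was normalized to agonist alone (100%), and IC50 came from the dose–inhibition curve.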
# Chain of human A2A receptor (A2AR) (P29274 whole entry): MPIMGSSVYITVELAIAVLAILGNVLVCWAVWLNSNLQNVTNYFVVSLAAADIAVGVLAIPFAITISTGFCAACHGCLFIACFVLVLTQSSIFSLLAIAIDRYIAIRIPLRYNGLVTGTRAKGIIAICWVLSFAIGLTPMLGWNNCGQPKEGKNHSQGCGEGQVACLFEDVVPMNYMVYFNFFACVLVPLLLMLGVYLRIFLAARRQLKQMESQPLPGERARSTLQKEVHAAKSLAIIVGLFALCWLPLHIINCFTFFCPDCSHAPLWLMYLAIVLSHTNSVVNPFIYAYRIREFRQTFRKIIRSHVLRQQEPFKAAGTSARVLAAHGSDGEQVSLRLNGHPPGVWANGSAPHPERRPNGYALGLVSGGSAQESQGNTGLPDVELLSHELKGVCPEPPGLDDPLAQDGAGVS
row,SMILES,IC50
1,"CC(C(=O)N1CCC[C@@H](O)C1)(c1ccccc1)n1ncc2c1nc(N)n1nc(-c3ccco3)nc21 (stereo partly drawn) [Compound B32, 2-(5-amino-2-(furan-2-yl)-7H-pyrazolo[4,3-e][1,2,4]triazolo[1,5-c]pyrimidin-7-yl)-1-((R)-3-hydroxypiperidin-1-yl)-2-phenylpropan-1-one]",111 nM
2,"COC(=O)C1CC2(CCN(C(=O)C(C)(c3ccccc3)n3ncc4c3nc(N)n3nc(-c5ccco5)nc43)CC2)C1 (centres unmarked) [Compound B33, methyl 7-(2-(5-amino-2-(furan-2-yl)-7H-pyrazolo[4,3-e][1,2,4]triazolo[1,5-c]pyrimidin-7-yl)-2-phenylpropanoyl)-7-azaspiro[3.5]nonane-2-carboxylate]",16.5 nM
3,CC(C(=O)N1CCC2(CC1)COC2)(c1ccccc1)n1ncc2c1nc(N)n1nc(-c3ccco3)nc21 (centres unmarked) [Compound B34],14 nM
4,"COCCOc1ccc(N2CCN(C(=O)C(C)n3cc4c(nc(N)n5nc(-c6ccco6)nc45)n3)CC2)cc1 (centres unmarked) [Compound C1, 2-(5-amino-2-(furan-2-yl)-8H-pyrazolo[4,3-e][1,2,4]triazolo[1,5-c]pyrimidin-8-yl)-1-(4-(4-(2-methoxyethoxy)phenyl)piperazin-1-yl)propan-1-one]",28.4 nM
5,"COCCOc1ccc(N2CCN(C(=O)C(C(C)C)n3cc4c(nc(N)n5nc(-c6ccco6)nc45)n3)CC2)cc1 (centres unmarked) [Compound C2, 2-(5-amino-2-(furan-2-yl)-8H-pyrazolo[4,3-e][1,2,4]triazolo[1,5-c]pyrimidin-8-yl)-1-(4-(4-(2-methoxyethoxy)phenyl)piperazin-1-yl)-3-methylbutan-1-one]",648 nM
6,"COCCOc1ccc(N2CCN(C(=O)C(C)(C)n3cc4c(nc(N)n5nc(-c6ccco6)nc45)n3)CC2)cc1 [Compound C3, 2-(5-amino-2-(furan-2-yl)-8H-pyrazolo[4,3-e][1,2,4]triazolo[1,5-c]pyrimidin-8-yl)-1-(4-(4-(2-methoxyethoxy)phenyl)piperazin-1-yl)-2-methylpropan-1-one]",1870 nM
7,"CCC(C(=O)N1CCN(c2ccc(OCCOC)cc2)CC1)n1cc2c(nc(N)n3nc(-c4ccco4)nc23)n1 (centres unmarked) [Compound C4, 2-(5-amino-2-(furan-2-yl)-8H-pyrazolo[4,3-e][1,2,4]triazolo[1,5-c]pyrimidin-8-yl)-1-(4-(4-(2-methoxyethoxy)phenyl)piperazin-1-yl)butan-1-one]",140 nM
8,"CCCC(C(=O)N1CCN(c2ccc(OCCOC)cc2)CC1)n1cc2c(nc(N)n3nc(-c4ccco4)nc23)n1 (centres unmarked) [Compound C5, 2-(5-amino-2-(furan-2-yl)-8H-pyrazolo[4,3-e][1,2,4]triazolo[1,5-c]pyrimidin-8-yl)-1-(4-(4-(2-methoxyethoxy)phenyl)piperazin-1-yl)pentan-1-one]",132 nM
9,"COCCOCCOc1ccc(N2CCN(C(=O)C(C)(C)n3cc4c(nc(N)n5nc(-c6ccco6)nc45)n3)CC2)cc1 [Compound C6, 2-(5-amino-2-(furan-2-yl)-8H-pyrazolo[4,3-e][1,2,4]triazolo[1,5-c]pyrimidin-8-yl)-1-(4-(4-(2-(2-methoxyethoxy)ethoxy)phenyl)piperazin-1-yl)-2-methylpropan-1-one]",3180 nM
10,"CCCC(C(=O)N1CCN(c2ccc(OCCOCCOC)cc2)CC1)n1cc2c(nc(N)n3nc(-c4ccco4)nc23)n1 (centres unmarked) [Compound C7, 2-(5-amino-2-(furan-2-yl)-8H-pyrazolo[4,3-e][1,2,4]triazolo[1,5-c]pyrimidin-8-yl)-1-(4-(4-(2-(2-methoxyethoxy)ethoxy)phenyl)piperazin-1-yl)pentan-1-one]",186 nM
11,"CCC(C(=O)N1CCN(c2ccc(OCCOCCOC)cc2)CC1)n1cc2c(nc(N)n3nc(-c4ccco4)nc23)n1 (centres unmarked) [Compound C8, 2-(5-amino-2-(furan-2-yl)-8H-pyrazolo[4,3-e][1,2,4]triazolo[1,5-c]pyrimidin-8-yl)-1-(4-(4-(2-(2-methoxyethoxy)ethoxy)phenyl)piperazin-1-yl)butan-1-one]",243 nM
12,"COCCOCCOc1ccc(N2CCN(C(=O)C(C)n3cc4c(nc(N)n5nc(-c6ccco6)nc45)n3)CC2)cc1 (centres unmarked) [Compound C9, 2-(5-amino-2-(furan-2-yl)-8H-pyrazolo[4,3-e][1,2,4]triazolo[1,5-c]pyrimidin-8-yl)-1-(4-(4-(2-(2-methoxyethoxy)ethoxy)phenyl)piperazin-1-yl)propan-1-one]",39.8 nM
13,"CCCCC(C(=O)N1CCN(c2ccc(OCCOC)cc2)CC1)n1cc2c(nc(N)n3nc(-c4ccco4)nc23)n1 (centres unmarked) [Compound C10, 2-(5-amino-2-(furan-2-yl)-8H-pyrazolo[4,3-e][1,2,4]triazolo[1,5-c]pyrimidin-8-yl)-1-(4-(4-(2-methoxyethoxy)phenyl)piperazin-1-yl)hexan-1-one]",126 nM
14,"CCCCC(C(=O)N1CCN(c2ccc(OCCOCCOC)cc2)CC1)n1cc2c(nc(N)n3nc(-c4ccco4)nc23)n1 (centres unmarked) [Compound C11, 2-(5-amino-2-(furan-2-yl)-8H-pyrazolo[4,3-e][1,2,4]triazolo[1,5-c]pyrimidin-8-yl)-1-(4-(4-(2-(2-methoxyethoxy)ethoxy)phenyl)piperazin-1-yl)hexan-1-one]",118 nM
15,"COCCOCCOc1ccc(N2CCN(C(=O)C(C(C)C)n3cc4c(nc(N)n5nc(-c6ccco6)nc45)n3)CC2)cc1 (centres unmarked) [Compound C12, 2-(5-amino-2-(furan-2-yl)-8H-pyrazolo[4,3-e][1,2,4]triazolo[1,5-c]pyrimidin-8-yl)-1-(4-(4-(2-(2-methoxyethoxy)ethoxy)phenyl)piperazin-1-yl)-3-methylbutan-1-one]",337 nM
16,"CC(C(=O)N1CCN(c2ccc(OCCN)cc2)CC1)n1cc2c(nc(N)n3nc(-c4ccco4)nc23)n1 (centres unmarked) [Compound C13, 2-(5-amino-2-(furan-2-yl)-8H-pyrazolo[4,3-e][1,2,4]triazolo[1,5-c]pyrimidin-8-yl)-1-(4-(4-(2-aminoethoxy)phenyl)piperazin-1-yl)propan-1-one]",12.7 nM
17,"COCCOc1ccc(N2CCN(C(=O)C(c3ccccc3)n3cc4c(nc(N)n5nc(-c6ccco6)nc45)n3)CC2)cc1 (centres unmarked) [Compound C14, 2-(5-amino-2-(furan-2-yl)-8H-pyrazolo[4,3-e][1,2,4]triazolo[1,5-c]pyrimidin-8-yl)-1-(4-(4-(2-methoxyethoxy)phenyl)piperazin-1-yl)-2-phenylethan-1-one]",9.5 nM
18,"COCCOCCOc1ccc(N2CCN(C(=O)C(c3ccccc3)n3cc4c(nc(N)n5nc(-c6ccco6)nc45)n3)CC2)cc1 (centres unmarked) [Compound C15, 2-(5-amino-2-(furan-2-yl)-8H-pyrazolo[4,3-e][1,2,4]triazolo[1,5-c]pyrimidin-8-yl)-1-(4-(4-(2-(2-methoxyethoxy)ethoxy)phenyl)piperazin-1-yl)-2-phenylethan-1-one]",17 nM
19,"COCCOc1ccc(N2CCN(C(=O)C(C3CC3)n3cc4c(nc(N)n5nc(-c6ccco6)nc45)n3)CC2)cc1 (centres unmarked) [Compound C16, 2-(5-amino-2-(furan-2-yl)-8H-pyrazolo[4,3-e][1,2,4]triazolo[1,5-c]pyrimidin-8-yl)-2-cyclopropyl-1-(4-(4-(2-methoxyethoxy)phenyl)piperazin-1-yl)ethan-1-one]",4.9 nM
20,"COCCOc1ccc(N2CCN(C(=O)C(CC(C)C)n3cc4c(nc(N)n5nc(-c6ccco6)nc45)n3)CC2)cc1 (centres unmarked) [Compound C17, 2-(5-amino-2-(furan-2-yl)-8H-pyrazolo[4,3-e][1,2,4]triazolo[1,5-c]pyrimidin-8-yl)-1-(4-(4-(2-methoxyethoxy)phenyl)piperazin-1-yl)-4-methylpentan-1-one]",88.4 nM
